Reference: patent US20100041892A1, “Therapeutic agent for diabetes” (priority 2005, published 2010)

system: KKAy mice; assay: Blood glucose and blood lipid (triglyceride) lowering action in mice; type: in vivo; conditions: Mus musculus, 4TO7, po, 0.03% in powder diet, 4 to 7 days, plasma glucose relative to non-administration group = 100%, read-out: hypoglycemic action (%)
Excerpt: The test compound was mixed with a powder diet (CE-2, CLEA JAPAN, INC.) at a proportion of 0.01% (0.03% for the compounds of Examples 1, 2, 12, 81, 94, 96, 129 and 143, and 0.005% for the compounds of Examples 28, 30 and 37) and freely given to KKAy mice (9 to 14-week-old, 5 mice per group) which are obesity non-insulin-dependent diabetes (type-2 diabetes) models, for 4 to 7 days. During this period, water was freely given. The blood was drawn from the orbital venous plexus. Glucose and triglyceride in the plasma separated from the blood were quantitated using L Type Wako Glu2 (Wako Pure Chemical Industries, Ltd.) and L Type Wako TG·H (Wako Pure Chemical Industries, Ltd.), respectively, according to an enzyme method.

| Structure (SMILES) | response vs control in vivo at 0.03 % |
| --- | --- |
| CCCCCS(=O)(=O)NC(=O)CCc1cc(OC(C)C)nn1Cc1ccc(C(F)(F)F)cc1Cl [Example 143, 3-{1-[2-chloro-4-(trifluoromethyl)benzyl]-3-isopropoxy-1H-pyrazol-5-yl}-N-(pentylsulfonyl)propanamide] | 47% |

same assay, conditions: Mus musculus, 4TO7, po, 0.03% in powder diet, 4 to 7 days, plasma triglyceride relative to non-administration group = 100%, read-out: hypolipidemic action (%)

| Structure (SMILES) | response vs control in vivo at 0.03 % |
| --- | --- |
| CCCCCS(=O)(=O)NC(=O)CCc1cc(OC(C)C)nn1Cc1ccc(C(F)(F)F)cc1Cl [Example 143, 3-{1-[2-chloro-4-(trifluoromethyl)benzyl]-3-isopropoxy-1H-pyrazol-5-yl}-N-(pentylsulfonyl)propanamide] | 76% |

target: T1, PPARγ-RXRα heterodimer (Homo sapiens, UniProt P37231); assay: PPARγ-RXRα heterodimer ligand activity (luciferase reporter, PPARγ:RXRα:4ERPP/CHO-K1 cells); type: cell-based; conditions: concentration showing 50% of the maximum luciferase induction rate; CHO-K1 reporter cells, one day incubation
T1 construct: expressed in transfected cells; host or cells: CHO-K1 (PPARγ:RXRα:4ERPP/CHO-K1)
T1 sequence (P37231 1-477 isoform P37231-2): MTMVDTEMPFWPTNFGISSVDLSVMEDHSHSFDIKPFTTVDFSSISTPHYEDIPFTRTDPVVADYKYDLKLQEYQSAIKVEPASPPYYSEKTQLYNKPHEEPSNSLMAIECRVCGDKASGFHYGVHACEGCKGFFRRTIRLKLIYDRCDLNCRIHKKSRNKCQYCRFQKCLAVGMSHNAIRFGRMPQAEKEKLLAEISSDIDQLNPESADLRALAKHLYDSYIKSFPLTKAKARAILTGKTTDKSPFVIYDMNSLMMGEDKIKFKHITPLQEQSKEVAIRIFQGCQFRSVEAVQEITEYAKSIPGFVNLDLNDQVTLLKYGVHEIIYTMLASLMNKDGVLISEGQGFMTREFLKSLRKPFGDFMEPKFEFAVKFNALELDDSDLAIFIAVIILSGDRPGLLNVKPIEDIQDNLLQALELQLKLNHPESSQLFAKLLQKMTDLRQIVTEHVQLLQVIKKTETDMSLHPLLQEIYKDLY
T1 sequence (P19793 1-462 partner): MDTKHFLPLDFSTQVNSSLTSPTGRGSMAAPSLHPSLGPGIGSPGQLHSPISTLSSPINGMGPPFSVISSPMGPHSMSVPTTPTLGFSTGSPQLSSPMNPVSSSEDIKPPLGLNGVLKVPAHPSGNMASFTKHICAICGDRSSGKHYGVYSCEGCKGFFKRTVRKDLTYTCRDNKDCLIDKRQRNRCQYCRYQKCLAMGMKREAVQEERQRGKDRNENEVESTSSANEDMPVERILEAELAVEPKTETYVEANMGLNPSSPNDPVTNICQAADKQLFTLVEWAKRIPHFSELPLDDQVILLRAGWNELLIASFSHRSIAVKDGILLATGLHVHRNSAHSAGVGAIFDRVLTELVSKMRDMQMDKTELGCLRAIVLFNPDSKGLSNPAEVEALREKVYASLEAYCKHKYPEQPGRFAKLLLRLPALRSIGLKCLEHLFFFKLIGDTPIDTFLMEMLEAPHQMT
Protocol: The PPARγ:RXRα:4ERPP/CHO-K1 cells described in WO03/099793 were cultured in a Ham F12 medium [manufactured by Life Technologies, Inc., US] containing 10% calf fetal serum [manufactured by Life Technologies, Inc., US], sown in a 96-well white plate (manufactured by Corning Coster Corporation, US] at 1×10^4 cells/well, and incubated overnight in a carbon dioxide gas incubator at 37° C.
Then, the medium was removed from the 96 well white plate, 45 μl of Ham F12-medium containing 0.1% fatty acid-free bovine serum albumin (BSA) and a test compound (5 μl) were added, and the cells were incubated for one day in a carbon dioxide gas incubator at 37° C. The medium was removed, 20 μl of PicaGene 7.5 (manufactured by Wako Pure Chemical Industries, Ltd.) 2-fold diluted with HBSS (HANKS' BALANCED SALT SOLUTION) [manufactured by BIO WHITTAKER, US] was added. After stirring, the luciferase activity was determined using the 1420 ARVO Multilabel Counter [manufactured by PerkinElmer, US].
The induction rate was calculated from the luciferase activity of each test compound based on the luciferase activity of the test compound non-administration group as 1. The test compound concentration and the induction rate were analyzed by PRISM [manufactured by GraphPad Software, Inc., US] to calculate EC50 value (compound concentration showing 50% of the maximum value of induction rate) of the test compound.

| Structure (SMILES) | EC50 |
| --- | --- |
| CCCCCS(=O)(=O)NC(=O)/C=C/c1ccc(OC(C)C)cc1Oc1ncc(C(F)(F)F)cc1Cl [Example 13, (2E)-3-[2-{[3-chloro-5-(trifluoromethyl)pyridin-2-yl]oxy}-4-isopropoxyphenyl]-N-(pentylsulfonyl)acrylamide] | 26 nM |
| CCCCCS(=O)(=O)NC(=O)CCc1ccc(OCC(=O)N(CC)CC)cc1Oc1ncc(C(F)(F)F)cc1Cl [Example 44, 3-{2-{[3-chloro-5-(trifluoromethyl)pyridin-2-yl]oxy}-4-[2-(diethylamino)-2-oxoethoxy]phenyl}-N-(pentylsulfonyl)propanamide] | 6.9 nM |
| CCCCCS(=O)(=O)NC(=O)CCc1ccc(OCCN2CCCC2=O)cc1Oc1ncc(C(F)(F)F)cc1Cl [Example 47, 3-{2-{[3-chloro-5-(trifluoromethyl)pyridin-2-yl]oxy}-4-[2-(2-oxopyrrolidin-1-yl)ethoxy]phenyl}-N-(pentylsulfonyl)propanamide] | 3.4 nM |
| CCCCCS(=O)(=O)NC(=O)/C=C/c1cc(OC(C)C)nn1Cc1ccc(C(F)(F)F)cc1Cl [Example 111, (2E)-3-{1-[2-chloro-4-(trifluoromethyl)benzyl]-3-isopropoxy-1H-pyrazol-5-yl}-N-(pentylsulfonyl)acrylamide] | 9.3 nM |

system: not given; assay: not given; conditions: not given

| Structure (SMILES) | melting point |
| --- | --- |
| CCCCCS(=O)(=O)NC(=O)/C=C/c1ccc(OCC(C)=O)cc1Oc1ncc(C(F)(F)F)cc1Cl [Example 452, (2E)-3-[2-{[3-chloro-5-(trifluoromethyl)pyridin-2-yl]oxy}-4-(2-oxopropoxy)phenyl]-N-(pentylsulfonyl)acrylamide] | 187 to 188 °C |
| CCCCCS(=O)(=O)NC(=O)/C=C/c1ccc(OCC(COC(C)C)OC(C)=O)cc1Oc1ncc(C(F)(F)F)cc1Cl (stereo not drawn) [Example 455, 2-(3-{[3-chloro-5-(trifluoromethyl)pyridin-2-yl]oxy}-4-{(1E)-3-oxo-3-[(pentylsulfonyl)amino]prop-1-en-1-yl}phenoxy)-1-(isopropoxymethyl)ethyl acetate] | 101 to 103 °C |
| CCCCCS(=O)(=O)NC(=O)/C=C/c1ccc(OCC(O)COC(C)C)cc1Oc1ncc(C(F)(F)F)cc1Cl (stereo not drawn) [Example 456, (2E)-3-[2-{[3-chloro-5-(trifluoromethyl)pyridin-2-yl]oxy}-4-(2-hydroxy-3-isopropoxypropoxy)phenyl]-N-(pentylsulfonyl)acrylamide] | 86 to 88 °C |
| CCCCCS(=O)(=O)NC(=O)/C=C/c1ccc(C)n1Cc1ccc(Cl)cc1Cl [Example 457, (2E)-3-[1-(2,4-dichlorobenzyl)-5-methyl-1H-pyrrol-2-yl]-N-(pentylsulfonyl)acrylamide] | 189 to 190 °C |
| CCCCCS(=O)(=O)NC(=O)/C=C/c1c(C)cc(C)n1Cc1ccc(Cl)cc1Cl [Example 458, (2E)-3-[1-{2,4-dichlorobenzyl)-3,5-dimethyl-1H-pyrrol-2-yl]-N-(pentylsulfonyl)acrylamide] | 170 to 171 °C |
| CCCCCS(=O)(=O)NC(=O)/C=C/c1ccc(OCCOC)cc1Oc1ncc(Br)cc1C [Example 460, (2E)-3-[2-[(5-bromo-3-methylpyridin-2-yl)oxy]-4-(2-methoxyethoxy)phenyl]-N-(pentylsulfonyl)acrylamide] | 159.8 to 160.2 °C |
| CCCCCS(=O)(=O)NC(=O)/C=C/c1ccc(OCCOC)cc1Oc1ncc(NC(C)=O)cc1C [Example 463, (2E)-3-[2-{[5-(acetylamino)-3-methylpyridin-2-yl]oxy}-4-(2-methoxyethoxy)phenyl]-N-(pentylsulfonyl)acrylamide] | 187.9 to 188.2 °C |
| CCOC(=O)c1cnc(Oc2cc(OCCOC)ccc2CCCOC(=O)NCC2CC2)c(Cl)c1 [Example 465, ethyl 5-chloro-6-[2-[3-({[(cyclopropylmethyl)amino]carbonyl}oxy)propyl]-5-(2-methoxyethoxy)phenoxy]nicotinate] | 94.6 to 94.8 °C |
| CCCCCS(=O)(=O)NC(=O)/C=C/c1ccc(OCCOC)cc1Oc1ncc(-c2ccccc2)cc1C [Example 467, (2E)-3-{4-(2-methoxyethoxy)-2-[(3-methyl-5-phenylpyridin-2-yl)oxy]phenyl}-N-(pentylsulfonyl)acrylamide] | 132.8 to 133.5 °C |
| C/C(=C\c1ccc(OC(C)C)cc1Oc1ncc(C(F)(F)F)cc1Cl)C(=O)NS(=O)(=O)NCc1cnc(C)cn1 [Example 470, (2E)-3-(2-{[3-chloro-5-(trifluoromethyl)pyridin-2-yl]oxy}-4-isopropoxyphenyl)-2-methyl-N-({[(5-methylpyrazin-2-yl)methyl]amino}sulfonyl)acrylamide] | 126 to 128 °C |
| C/C(=C\c1ccc(OC(C)C)cc1Oc1ncc(C(F)(F)F)cc1Cl)C(=O)NS(=O)(=O)NCCc1ccccn1 [Example 471, (2E)-3-(2-{[3-chloro-5-(trifluoromethyl)pyridin-2-yl]oxy}-4-isopropoxyphenyl)-2-methyl-N-{[(2-pyridin-2-ylethyl)amino]sulfonyl}acrylamide] | 121 to 123 °C |
| CCCCOc1ccc(CCCOC(=O)NS(=O)(=O)NCCOC(C)C)c(Oc2ncc(C(F)(F)F)cc2Cl)c1 [Example 473, 3-(4-butoxy-2-{[3-chloro-5-(trifluoromethyl)pyridin-2-yl]oxy}phenyl)propyl {[(2-isopropoxyethyl)amino]sulfonyl}carbamate] | 91.4 to 91.6 °C |
| COCCCOc1ccc(CCCOC(=O)NS(=O)(=O)NCCOC(C)C)c(Oc2ncc(C(F)(F)F)cc2Cl)c1 [Example 474, 3-[2-{[3-chloro-5-(trifluoromethyl)pyridin-2-yl]oxy}-4-(3-methoxypropoxy)phenyl]propyl {[(2-isopropoxyethyl)amino]sulfonyl}carbamate] | 67.4 to 68 °C |
| C=CCCOc1ccc(CCCOC(=O)NS(=O)(=O)NCCOC(C)C)c(Oc2ncc(C(F)(F)F)cc2Cl)c1 [Example 475, 3-(4-(but-3-en-1-yloxy)-2-{[3-chloro-5-(trifluoromethyl)pyridin-2-yl]oxy}phenyl)propyl {[(2-isopropoxyethyl)amino]sulfonyl}carbamate] | 111.1 to 113 °C |
| CC(C)OCCNS(=O)(=O)NC(=O)OCCCc1ccc(OCc2ccco2)cc1Oc1ncc(C(F)(F)F)cc1Cl [Example 476, 3-[2-{[3-chloro-5-(trifluoromethyl)pyridin-2-yl]oxy}-4-(2-furylmethoxy)phenyl]propyl {[(2-isopropoxyethyl)amino]sulfonyl}carbamate] | 118 to 119.8 °C |
